Results: patent US10219516B2, “Molecules having pesticidal utility, and intermediates, compositions, and processes, related thereto” (priority 2015, dated 2019)

What was measured:
Format in all cases: in vivo
[1] = tested on: Yellow Fever Mosquito (Aedes aegypti, AEDSAE); experiment: Bioassay on Yellow Fever Mosquito (YFM), 96-well plate larval assay; conditions: Yellow Fever Mosquito, 96-well plate larval assay
Method in brief: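 Each well was scored for mortality after 3 days at room temperature under a non-evaporative lid. Test molecules came from DMSO masters (4000 ppm stock) diluted with water/acetone 90:10 and dispensed into six replicate plates, which were then infested with roughly 1-day-old larvae in liver-powder water.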

[2] = tested on: Beet Armyworm (Spodoptera exigua, LAPHEG); experiment: Bioassay on Beet Armyworm (BAW), 128-well diet tray assay; conditions: Beet Armyworm, 128-well diet tray assay, read-out: BAW rating
Method in brief: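 Test molecule dissolved in acetone-water 90:10 is applied at 50 μg/cm^2 onto artificial diet and allowed to dry. Second instar larvae, one to five per well, are then added, and trays are vented and kept at 25° C. for five to seven days before mortality is scored.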

[3] = tested on: Cabbage Looper (Trichoplusia ni, TRIPNI); experiment: Bioassay on Cabbage Looper (CL), 128-well diet tray assay; conditions: Trichoplusia ni; Cabbage Looper, 128-well diet tray assay; read-out: CL rating
Method in brief: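 Mortality of second instar larvae exposed to diet coated with 50 μg/cm^2 compound (acetone-water 90:10 vehicle, dried); 25° C., 5–7 days.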

SMILES: O=C(Nc1cccc2[nH]ccc12)c1cc(NC(=O)[C@H]2[C@H](c3cc(Cl)cc(Cl)c3)C2(Cl)Cl)ccc1Cl (relative stereo) [F528, 2-Chloro-5-(trans)-(2,2-dichloro-3-(3,5-dichlorophenyl)cyclopropane-1-carboxamido)-N-(1H-indol-4-yl)benzamide]
- YFM rating [1]: A (80-100)
- pest or weed control at 50 µg/cm2 [2]: 50 to 100%
- pest or weed control at 50 µg/cm2 [3]: 50 to 100%

SMILES: O=C(Nc1cccc2cc[nH]c12)c1cc(NC(=O)[C@H]2[C@H](c3cc(Cl)cc(Cl)c3)C2(Cl)Cl)ccc1Cl (relative stereo) [F529, 2-Chloro-5-(trans)-(2,2-dichloro-3-(3,5-dichlorophenyl)cyclopropane-1-carboxamido)-N-(1H-indol-7-yl)benzamide]
- YFM rating [1]: A (80-100)
- pest or weed control at 50 µg/cm2 [2]: 50 to 100%
- pest or weed control at 50 µg/cm2 [3]: 50 to 100%

SMILES: Cn1ccc2c(NC(=O)c3cc(NC(=O)[C@H]4[C@H](c5cc(Cl)cc(Cl)c5)C4(Cl)Cl)ccc3Cl)cccc21 (relative stereo) [F530, 2-Chloro-5-(trans)-(2,2-dichloro-3-(3,5-dichlorophenyl)cyclopropane-1-carboxamido)-N-(1-methyl-1H-indol-4-yl)benzamide]
- YFM rating [1]: A (80-100)
- pest or weed control at 50 µg/cm2 [2]: 50 to 100%
- pest or weed control at 50 µg/cm2 [3]: 50 to 100%

SMILES: Cn1ccc2cccc(NC(=O)c3cc(NC(=O)[C@H]4[C@H](c5cc(Cl)cc(Cl)c5)C4(Cl)Cl)ccc3Cl)c21 (relative stereo) [F531, 2-Chloro-5-(trans)-(2,2-dichloro-3-(3,5-dichlorophenyl)cyclopropane-1-carboxamido)-N-(1-methyl-1H-indol-7-yl)benzamide]
- YFM rating [1]: A (80-100)
- pest or weed control at 50 µg/cm2 [2]: 50 to 100%
- pest or weed control at 50 µg/cm2 [3]: 50 to 100%

SMILES: O=C(Nc1ccc(F)cc1F)c1cc(NC(=O)[C@H]2[C@H](c3ccc(Br)c(Br)c3)C2(Cl)Cl)ccc1Cl (relative stereo) [F532, 2-Chloro-5-(trans)-(2,2-dichloro-3-(3,4-dibromophenyl)cyclopropane-1-carboxamido)-N-(2,4-difluorophenyl)benzamide]
- YFM rating [1]: A (80-100)
- pest or weed control at 50 µg/cm2 [2]: 50 to 100%
- pest or weed control at 50 µg/cm2 [3]: 50 to 100%

SMILES: O=C(Nc1ccc(F)cc1)c1cc(NC(=O)[C@H]2[C@H](c3cc(F)c(Br)c(F)c3)C2(Cl)Cl)ccc1Cl (relative stereo) [F538, 5-(trans-3-(4-bromo-3,5-difluorophenyl)-2,2-dichlorocyclopropane-1-carboxamido)-2-chloro-N-(4-fluorophenyl)benzamide]
- YFM rating [1]: A (80-100)
- pest or weed control at 50 µg/cm2 [2]: 50 to 100%
- pest or weed control at 50 µg/cm2 [3]: 50 to 100%

SMILES: COc1cc([C@H]2[C@H](C(=O)Nc3ccc(Cl)c(C(=O)Nc4ccc(F)cc4)c3)C2(Cl)Cl)cc(F)c1Br (relative stereo) [F539, 5-(trans-3-(4-Bromo-3-fluoro-5-methoxyphenyl)-2,2-dichlorocyclopropane-1-carboxamido)-2-chloro-N-(4-fluorophenyl)benzamide]
- YFM rating [1]: A (80-100)
- pest or weed control at 50 µg/cm2 [2]: 50 to 100%
- pest or weed control at 50 µg/cm2 [3]: 50 to 100%

SMILES: O=C(Nc1ccc(F)cc1F)c1cc(NC(=O)[C@H]2[C@H](c3cc(F)c(Br)c(F)c3)C2(Cl)Cl)ccc1Cl (relative stereo) [F541, 5-(trans-3-(4-Bromo-3,5-difluorophenyl)-2,2-dichlorocyclopropane-1-carboxamido)-2-chloro-N-(2,4-difluorophenyl)benzamide]
- YFM rating [1]: A (80-100)
- pest or weed control at 50 µg/cm2 [2]: 50 to 100%
- pest or weed control at 50 µg/cm2 [3]: 50 to 100%

SMILES: COc1cc([C@H]2[C@H](C(=O)Nc3ccc(Cl)c(C(=O)Nc4ccc(F)cc4F)c3)C2(Cl)Cl)cc(F)c1Br (relative stereo) [F542, 5-(trans-3-(4-Bromo-3-fluoro-5-methoxyphenyl)-2,2-dichlorocyclopropane-1-carboxamido)-2-chloro-N-(2,4-difluorophenyl)benzamide]
- YFM rating [1]: A (80-100)
- pest or weed control at 50 µg/cm2 [2]: 50 to 100%
- pest or weed control at 50 µg/cm2 [3]: 50 to 100%

SMILES: COc1c(F)cc([C@H]2[C@H](C(=O)Nc3ccc(Cl)c(C(=O)Nc4ccc(F)cc4F)c3)C2(Cl)Cl)cc1Br (relative stereo) [F543, 5-(trans-3-(3-Bromo-5-fluoro-4-methoxyphenyl)-2,2-dichlorocyclopropane-1-carboxamido)-2-chloro-N-(2,4-difluorophenyl)benzamide]
- YFM rating [1]: A (80-100)
- pest or weed control at 50 µg/cm2 [2]: 50 to 100%
- pest or weed control at 50 µg/cm2 [3]: 50 to 100%

SMILES: COc1cc(NC(=O)c2cc(NC(=O)[C@H]3[C@H](c4cc(Cl)cc(Cl)c4)C3(Cl)Cl)ccc2Cl)ccn1 (relative stereo) [F544, 2-Chloro-5-(trans-2,2-dichloro-3-(3,5-dichlorophenyl)cyclopropane-1-carboxamido)-N-(2-methoxypyridin-4-yl)benzamide]
- YFM rating [1]: A (80-100)
- pest or weed control at 50 µg/cm2 [2]: 50 to 100%
- pest or weed control at 50 µg/cm2 [3]: 50 to 100%

SMILES: COc1cc(NC(=O)c2cc(NC(=O)[C@H]3[C@H](c4ccc(F)c(Cl)c4)C3(Cl)Cl)ccc2Cl)ccn1 (relative stereo) [F545, 2-Chloro-5-(trans-2,2-dichloro-3-(3-chloro-4-fluorophenyl)cyclopropane-1-carboxamido)-N-(2-methoxypyridin-4-yl)benzamide]
- YFM rating [1]: A (80-100)
- pest or weed control at 50 µg/cm2 [2]: 50 to 100%
- pest or weed control at 50 µg/cm2 [3]: 50 to 100%

SMILES: COc1nccc(NC(=O)c2cc(NC(=O)[C@H]3[C@H](c4cc(Cl)cc(Cl)c4)C3(Cl)Cl)ccc2Cl)c1Cl (relative stereo) [F546, 2-Chloro-N-(3-chloro-2-methoxypyridin-4-yl)-5-(trans-2,2-dichloro-3-(3,5-dichlorophenyl)cyclopropane-1-carboxamido)benzamide]
- YFM rating [1]: A (80-100)
- pest or weed control at 50 µg/cm2 [2]: 50 to 100%
- pest or weed control at 50 µg/cm2 [3]: 50 to 100%

SMILES: COc1nccc(NC(=O)c2cc(NC(=O)[C@H]3[C@H](c4ccc(F)c(Cl)c4)C3(Cl)Cl)ccc2Cl)c1Cl (relative stereo) [F547, 2-Chloro-N-(3-chloro-2-methoxypyridin-4-yl)-5-(trans-2,2-dichloro-3-(3-chloro-4-fluorophenyl)cyclopropane-1-carboxamido)benzamide]
- YFM rating [1]: A (80-100)
- pest or weed control at 50 µg/cm2 [2]: 50 to 100%
- pest or weed control at 50 µg/cm2 [3]: 50 to 100%

SMILES: COc1cc(NC(=O)c2cc(NC(=O)[C@H]3[C@H](c4cc(Cl)cc(Cl)c4)C3(Cl)Cl)ccc2Cl)c(Br)cn1 (relative stereo) [F548, N-(5-Bromo-2-methoxypyridin-4-yl)-2-chloro-5-(trans-2,2-dichloro-3-(3,5-dichlorophenyl)cyclopropane-1-carboxamido)benzamide]
- YFM rating [1]: A (80-100)
- pest or weed control at 50 µg/cm2 [2]: 50 to 100%
- pest or weed control at 50 µg/cm2 [3]: 50 to 100%

SMILES: COc1cc(NC(=O)c2cc(NC(=O)[C@H]3[C@H](c4ccc(F)c(Cl)c4)C3(Cl)Cl)ccc2Cl)c(Br)cn1 (relative stereo) [F549, N-(5-Bromo-2-methoxypyridin-4-yl)-2-chloro-5-(trans-2,2-dichloro-3-(3-chloro-4-fluorophenyl)cyclopropane-1-carboxamido)benzamide]
- YFM rating [1]: A (80-100)
- pest or weed control at 50 µg/cm2 [2]: 50 to 100%
- pest or weed control at 50 µg/cm2 [3]: 50 to 100%
